Experimental data reported in patent publication US8455240B2, “Use of thermophilic sulphate-reducing archaea for the implementation of a process for the degradation of hydrocarbons” (Institut de Recherche pour le Development (I.R.D.), priority 2005, dated 2013).
Several values for one entry are separate records, joined by “and”; a condition that tells them apart may be missing. Equal values may be shown once. Marks after values point to notes of the source that are not given here.

How the values were obtained:
[1] = system: strain L-3; assay: Sources of carbon and energy used by the strain L-3; format: cell-based, Archaeoglobus fulgidus CNCM I-3465 (strain L-3); settings: for OD 580 nm Final / H2S (480 nm) / OD 580 nm Initial: thiosulphate as electron acceptor; for H2S (480 nm): unit from b126
Procedure: (§1) Experimentally, 4 ml of Cord-Ruwish reagent comprising 50 mmol/l of HCl and 5 mmol/l of CuSO4 are added to 0.1 ml of sample. Copper sulphate (CuSO4) by reacting with hydrogen sulphide (H2S), forms a copper sulphide precipitate (CuS) after the reaction: CuSO4+H2S→CuS+H2SO4
(§2) According to this method, the CuS is assayed by spectrophotometry at 480 nm. The readings are carried out against a blank constituted by 4 ml of Cord-Ruwish reagent.
The analysis and quantification of the metabolites are carried out by HPLC by measuring the disappearance of the substrate and the appearance of different metabolism products.
The study of the growth of the strain L-3 in the presence of different sources of carbon and energy was carried out with thiosulphate as an electron acceptor. The monitoring was carried out by estimation of the cell biomass (OD 580 nm), by assay of the sulphide production (Cord-Ruwish). The results were confirmed by HPLC analyses, and completed in certain cases by a CO2 assay.

[2] = system: Archaeoglobus fulgidus DSM 4304; assay: Monitoring of thiosulphate during the degradation of fatty acids by A. fulgidus; format: cell-based; settings: E1/E2 replicates; for thiosulphate, time 0: time 0 (Jul. 4, 2005), butyrate, valerate 5 mM, others 2 mM
Procedure: (§3) The thiosulphate and sulphate assays are carried out by ion chromatography.
(§4) The analyses are carried out with a chromatograph (Compact IC 761, Metrohm) equipped with: • A […] ion-exchange column (Metrosep A SUPP 1-250 (6.1005.300)), size 4.6*250 mm; • The eluent used is Na2CO3 at a concentration of 3 mmol/l, at a flow rate of 1 to 2.5 ml/min; ((→the flow rate varies during the analysis)) • A sample processor (Metrohm 838); • A conductimeter; • A computer where the results are recorded, integrated and analyzed by software (761 Compact IC, Metrohm). III.3.2. Operating Method
(§5) The operating conditions are such that the temperature is 20° C. and the pressure is 5 MPa. The samples to be analyzed are filtered. The injection volume is 20 μl. The detection is of conductimetric electrochemical type with chemical suppression allowing elution gradients.
(§6) Monitoring of thiosulphate during the degradation of fatty acids by A. fulgidus and by L-3

[3] = system: strain L-3; assay: Monitoring of thiosulphate during the degradation of fatty acids by L-3; format: cell-based, Archaeoglobus fulgidus CNCM I-3465 (strain L-3); settings: E1/E2 replicates; for thiosulphate, time 0: time 0 (Feb. 5, 2005)
Procedure: as §3, §4, §5, §6

[4] = system: Archaeoglobus fulgidus; assay: Screening for hydrocarbon degradation, A. fulgidus (sulphide production, Cord-Ruwish); format: cell-based; settings: for ΔS tf-ti: final minus initial sulphide
Procedure: as §1, §2
The study of the hydrocarbon degradation abilities is an experiment which requires a particularly long incubation. Thus, it was carried out in Bellco tubes sealed with thick rubber stoppers.
For these experiments, tubes containing 10 ml of culture medium without substrate, are 10% inoculated, then the hydrocarbon is introduced by injection through the stopper.
The hydrocarbons chosen are model molecules belonging to the different classes of hydrocarbons, namely: • hexadecane (CH3(CH2)14CH3, C16), a saturated linear aliphatic hydrocarbon; • hexadecene (CH3(CH2)13CHCH2, C16:1), an unsaturated linear aliphatic hydrocarbon of biogenic origin; • dibenzothiophene (DBT, C12H8S), a sulphur-containing aromatic hydrocarbon.
The aliphatic hydrocarbons (C16; C16:1) are added to the corresponding tubes, at a rate of 0.04 ml/10 ml of culture medium. The aromatic hydrocarbons (DBT) are solubilized in 2,2,4,4,6,8,8-heptamethylnonane (HMN, C16H34) at a rate of 20 mg/ml of HMN, and 0.75 ml of this solution is injected into 10 ml of culture medium.
3 tubes were produced for each test and control. The growth of the strains was monitored indirectly by the production of sulphide.
A subculture was carried out starting from the preceding experiment on naphthalene, DBT solubilized as previously in HMN, and on HMN alone, for the two strains studied.

Molecule	OD 580 nm Final [1]	H2S (480 nm) [1]	OD 580 nm Initial [1]	thiosulphate, time 0 [3]	further results
O=C[C@H](O)[C@H](O)[C@H](O)CO [Ribose, ribose]	0.3422 and 0.21	0.6 mM and 0.5 mM			HPLC analyses, initial quantity of the substrate ([1]; no increase in biomass or sulphide, explained by isomerization at high temperature): reduction in the initial quantity of the substrate
O=C(O)CCC(=O)O [Succinate]	0.0659 and 0.0672	0.3 mM	0.0845 and 0.0791		
CCCC(=O)O [butyrate]				15.45 mM	thiosulphate, end of May 2005 [2]: 9.29 mM; thiosulphate, time 0 [2]: 12.51 mM
CCCCCCCCC(=O)O [nonanoate]					thiosulphate, end of May 2005 ([2]; listed as C9 fatty acid): 7.65 mM and 10.52 mM
CCCCCCCC(=O)O [octanoate]					thiosulphate, end of May 2005 ([2]; listed as C8 fatty acid): 8.2 mM and 9.27 mM; thiosulphate, end of May 2005 ([3]; end of May 2005, listed as C8 fatty acid): 9.56 and mM and 9.33 mM
CCCCCCCCCCCCCCCC(=O)O [palmitate]				15.52 mM	thiosulphate, end of May 2005 [2]: 9.12 mM; thiosulphate, time 0 [2]: 11.54 mM
CCCCCCCCCCCCCCCCCC(=O)O [stearate]				14.64* mM	thiosulphate, end of May 2005 ([2]; listed as C18 fatty acid): 10.55 mM and 7.05 mM
Gelatin	0.0743 and 0.0767	0.3 mM and 0.2 mM	0.0629 and 0.0894		
Starch		0.8 mM and 0.7 mM	0.8834 and 0.8614		
hexadecene [C16:1]					sulphide production (OD 480) 0 d ([4]; 0 d, aromatics solubilized in HMN): 0.8 mM and 0.6 mM; sulphide production (OD 480) 45 d ([4]; 45 d): 3.6 mM and 4.3 mM; ΔS tf-ti [4]: approximately 3 mM; ΔS tf-ti ([4]; listed as C16: 1): 2.8 mM and 3.0 mM and 3.5 mM
